Results as given in patent publication US5057495A, “Atrial hypotensive peptide” (Queen's University at Kingston, priority 1988, dated 1991).
Entries after “also recorded” stand apart in the source; their conditions may differ. Bridge positions count the residues as written; N and C are the ends. Peptide text beside a SMILES is read from it.

B1: pro-ANP: precursor of ANP, tested for cross reactivity with the antiserum (protein, UniProt P01161 25-152, looked up)
pro-form: NPVYSAVSNTDLMDFKNLLDHLEEKMPVEDEVMPPQALSEQTDEAGAALSSLSEVPPWTGEVNPSQRDGGALGRGPWDPSDRSALLKSKLRALLAGPRSLRRSSCFGGRIDRIGAQSGLGCNSFRYRR
modifications: pro-form

Columns and labels:
[1] = test system: assay rats anesthetized with sodium pentobarbital; experiment: I.V. bolus injection into anesthetized bioassay rats: cardiovascular and renal responses; format: in vivo, rat; conditions: 3 nmol bolus injection
Procedure: Experiments were performed using male Sprague-Dawley rats, ranging in weight from 270-362 g. The rats were anesthetized by an intraperitional injection of sodium pentobarbital (70 mg.kg-1; MTC Pharmaceuticals, Hamilton, Ont.). Additional small amounts of anesthetic were administered as required in the course of the experiment. Body temperature was maintained by a heating lamp and rectal temperature monitored by a rectal probe. After installing a tracheal cannula, a femoral vein was cannulated and a priming infusion of saline (0.9% NaCl) was administered over a 20 min period (1.1 ml); this was followed by a maintenance saline infusion of 1.2 ml.h-1. The femoral artery was then cannulated for blood pressure measurement (Statham pressure transducer, model P23Db). A catheter was also advanced via the right external jugular vein towards the right heart for bolus injections of vehicle, ANF or the atrial peptide of the present invention (AHP). After tying off the penis, the bladder was cannulated for urine collection. […] The EKG was recorded for determination of heart rate.
Urine was collected in preweighed vials and volume calculated by weighing. […]
Zero time was established by 40-60 mins from the beginning the priming saline infusion. […] Cardiovascular measurements were analyzed at 5 min intervals during control and at 1, 5, 10, 15 and 20 mins following administration of injectate. […]

[2] = test system: antiserum to iso-rANP(1-20) (P2A); experiment: Double immunodiffusion / cross reactivity of antiserum raised against P2A; format: binding, rabbit

Molecule	diuretic, natriuretic, hypotensive and bradycardic response of ring peptides (FIG. 5) [1]	reaction with antiserum against P2A (precipitin lines / cross reactivity) [2]
CC[C@H](C)[C@@H]1NC(=O)[C@H](CCCNC(=N)N)NC(=O)[C@H](CC(=O)O)NC(=O)[C@H]([C@@H](C)CC)NC(=O)[C@H](CCCCN)NC(=O)[C@H](CCC(N)=O)NC(=O)CNC(=O)[C@H](Cc2ccccc2)NC(=O)[C@@H](N)CSSC[C@@H](C(=O)O)NC(=O)CNC(=O)[C@H](CC(C)C)NC(=O)[C@H](CCCNC(=N)N)NC(=O)[C@H](CO)NC(=O)[C@H](C(C)C)NC(=O)[C@H](C)NC(=O)CNC1=O [Iso-rANP(23-39)] (H-CFGQKIDRIGAVSRLGC-OH; disulfide 1-17)	significant diuretic, natriuretic, hypotensive and bradycardin response	
rANP(23-39): ring portion of rANP [reference compound]	substantially biologically inactive	
B1		No cross reactivity; also recorded: did not cross-react
